Here are results for 44 compounds from ChEMBL document CHEMBL3414443, “Truncated structures used in search for new lead compounds and in a retrospective analysis of thienopyrimidine-based EGFR inhibitors” (Eur J Med Chem, 2015).

For experiment [1], the target named is T1, Epidermal growth factor receptor (Homo sapiens, UniProt P00533). Nature of the experiment: Inhibition of EGFR (unknown origin) by Z'-LYTE assay.
In experiment [2] the target is T1, Epidermal growth factor receptor. Nature of the experiment: Inhibition of EGFR (unknown origin) using Poly(Glu:Tyr) 4:1 as substrate after 12 to 16 hrs.
Experiment [3] has the same target. Nature of the experiment: Inhibition of EGFR (unknown origin) after 40 mins by scintillation proximity assay. In general terms: In a scintillation proximity assay essentially only radioactivity close to the scintillant gives light.

Molecules are shown by their SMILES.

As a reminder, the IC50 is the concentration needed to halve the response being measured. Read a high IC50 as lower potency.

T1 sequence (P00533 whole entry): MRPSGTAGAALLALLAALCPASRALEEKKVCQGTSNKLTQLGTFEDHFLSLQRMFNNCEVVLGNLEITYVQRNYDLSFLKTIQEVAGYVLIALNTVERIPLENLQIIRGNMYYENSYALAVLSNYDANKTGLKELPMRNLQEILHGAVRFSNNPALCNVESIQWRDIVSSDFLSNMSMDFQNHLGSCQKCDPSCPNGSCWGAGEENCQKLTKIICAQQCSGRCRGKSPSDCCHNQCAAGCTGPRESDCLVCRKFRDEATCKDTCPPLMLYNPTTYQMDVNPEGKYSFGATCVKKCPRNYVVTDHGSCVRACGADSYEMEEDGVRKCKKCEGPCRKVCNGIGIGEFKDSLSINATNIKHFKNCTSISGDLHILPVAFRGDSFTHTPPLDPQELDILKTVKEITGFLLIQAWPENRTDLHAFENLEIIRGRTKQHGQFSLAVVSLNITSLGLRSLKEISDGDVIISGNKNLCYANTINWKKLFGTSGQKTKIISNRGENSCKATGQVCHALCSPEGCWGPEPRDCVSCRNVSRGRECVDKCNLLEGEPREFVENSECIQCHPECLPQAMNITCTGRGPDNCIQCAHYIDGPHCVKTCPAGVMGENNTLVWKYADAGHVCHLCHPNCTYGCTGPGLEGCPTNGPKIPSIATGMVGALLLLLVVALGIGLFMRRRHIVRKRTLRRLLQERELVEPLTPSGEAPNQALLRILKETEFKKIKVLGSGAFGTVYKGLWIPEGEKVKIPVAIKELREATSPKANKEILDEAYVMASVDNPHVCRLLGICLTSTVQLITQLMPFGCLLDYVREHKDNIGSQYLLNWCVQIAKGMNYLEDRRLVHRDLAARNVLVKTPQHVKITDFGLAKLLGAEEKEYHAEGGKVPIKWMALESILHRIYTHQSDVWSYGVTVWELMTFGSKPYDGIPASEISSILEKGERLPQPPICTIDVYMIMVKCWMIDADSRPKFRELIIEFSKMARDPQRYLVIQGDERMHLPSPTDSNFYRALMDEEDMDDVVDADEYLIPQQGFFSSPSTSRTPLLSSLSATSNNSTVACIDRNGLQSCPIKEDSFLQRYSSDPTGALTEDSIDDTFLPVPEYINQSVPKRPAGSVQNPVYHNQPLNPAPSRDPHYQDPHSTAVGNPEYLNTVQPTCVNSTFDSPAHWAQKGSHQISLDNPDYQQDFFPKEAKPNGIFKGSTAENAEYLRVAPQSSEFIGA

Compound `COc1ccccc1-c1cc2c(NCc3ccccn3)ncnc2s1` showed a 50% inhibitory concentration (IC50) in experiment [1] of 0.183 µM.

For `COc1ccccc1-c1cc2c(N[C@H](C)c3ccccn3)ncnc2s1`, the IC50 in experiment [1] was 0.153 µM. Compound `Fc1ccc(Nc2ncnc3sc(Br)cc23)cc1Cl` yielded an IC50 in experiment [1] of 0.053 µM.

With `C#Cc1cccc(Nc2ncnc3sc(Br)cc23)c1`, in experiment [1], the concentration for half-maximal inhibition (IC50) was found to be 0.023 µM. Take `Brc1cc2c(Nc3cccc(OCc4ccccc4)c3)ncnc2s1`: the concentration for half-maximal inhibition (IC50) in experiment [1] was greater than 10 µM.

In experiment [1], `Fc1cccc(COc2ccc(Nc3ncnc4sc(Br)cc34)cc2Cl)c1` had an IC50 of 0.257 µM. On to `COc1ccccc1-c1cc2c(NCc3ccccc3)ncnc2s1`, for which the concentration for half-maximal inhibition (IC50) in experiment [1] stood at 0.017 µM. Still for that read-out and setting: the figure for `COc1ccccc1-c1cc2c(N[C@H](C)c3ccccc3)ncnc2s1` is 0.009 µM. `COc1ccccc1-c1cc2c(N[C@@H](C)c3ccccc3)ncnc2s1` came in with an IC50 in experiment [1] of 1.86 µM.

With `COc1ccccc1-c1cc2c(N[C@H](CO)c3ccccc3)ncnc2s1`, the IC50 in experiment [1] turned out to be 0.001 µM.

The compound `COc1ccccc1-c1cc2c(N[C@@H](CO)c3ccccc3)ncnc2s1` came in with a half-maximal inhibitory concentration (IC50) in experiment [1] of 0.629 µM. `COC[C@@H](Nc1ncnc2sc(-c3ccccc3OC)cc12)c1ccccc1` displayed a 50% inhibitory concentration (IC50) in experiment [1] of 0.023 µM. Turning to `COc1ccccc1-c1cc2c(N[C@H](C)c3ccc(F)cc3)ncnc2s1`, the concentration for half-maximal inhibition (IC50) in experiment [1] came to 0.027 µM. Same read-out and setting: under `COc1ccccc1-c1cc2c(NCc3ccncc3)ncnc2s1` stands 0.108 µM; under `COc1ccccc1-c1cc2c(NCc3cccnc3)ncnc2s1`, 0.275 µM. In experiment [1], `Brc1cc2c(NCc3ccccc3)ncnc2s1` gave an IC50 of 0.241 µM. As to `C[C@@H](Nc1ncnc2sc(Br)cc12)c1ccccc1`, in experiment [1], half-maximal inhibition (IC50) was put at 0.038 µM. `C[C@H](Nc1ncnc2sc(Br)cc12)c1ccccc1` returned a concentration for half-maximal inhibition (IC50) in experiment [1] greater than 10 µM. On the same count and under the same terms, under `OC[C@@H](Nc1ncnc2sc(Br)cc12)c1ccccc1` stands 0.036 µM.

For `OC[C@H](Nc1ncnc2sc(Br)cc12)c1ccccc1`, the IC50 in experiment [1] was greater than 10 µM. In experiment [1], `COC[C@@H](Nc1ncnc2sc(Br)cc12)c1ccccc1` gave a half-inhibitory concentration (IC50) of 0.262 µM. Same read-out and setting: under `COC[C@H](Nc1ncnc2sc(Br)cc12)c1ccccc1` stands greater than 10 µM; under `CC[C@@H](Nc1ncnc2sc(Br)cc12)c1ccccc1`, 0.183 µM; under `C[C@@H](Nc1ncnc2sc(Br)cc12)c1ccc(F)cc1`, 0.15 µM.

`Brc1cc2c(NCc3ccncc3)ncnc2s1`: the IC50 in experiment [1] turned out to be 3.88 µM. On the same count and under the same terms, the figure for `Brc1cc2c(NCc3cccnc3)ncnc2s1` is greater than 10 µM; for `Brc1cc2c(NCc3ccccn3)ncnc2s1` it is 7.9 µM; for `C[C@@H](Nc1ncnc2sc(Br)cc12)c1ccccn1` it is 2.08 µM. The same measure, in the same setting: the figure for `Brc1cc2c(NCc3cccs3)ncnc2s1` is 1.37 µM; for `C[C@@H](Nc1ncnc2sc(Br)cc12)c1cccs1` it is 0.415 µM; for `Brc1cc2c(Nc3ccccc3)ncnc2s1` it is 0.08 µM. On the same count and under the same terms, under `COc1ccccc1-c1cc2c(NCc3cccs3)ncnc2s1` stands 0.17 µM. For `COc1ccccc1-c1cc2c(N[C@H](C)c3cccs3)ncnc2s1`, the half-maximal inhibitory concentration (IC50) in experiment [1] turned out to be 0.055 µM. On the same count and under the same terms, under `COc1ccccc1-c1cc2c(Nc3ccccc3)ncnc2s1` stands 0.173 µM; under `COc1ccccc1-c1cc2c(Nc3ccc(F)c(Cl)c3)ncnc2s1`, 0.005 µM.

In turn, `C#Cc1cccc(Nc2ncnc3sc(-c4ccccc4OC)cc23)c1` gave an IC50 in experiment [1] of 0.018 µM. In experiment [2], `OC[C@@H](Nc1ncnc2sc(-c3ccc(CN4CCNCC4)cc3)cc12)c1ccccc1` returned an IC50 of 0.6 µM.

Consider `OCCN1CCN(Cc2ccc(-c3cc4c(N[C@H](CO)c5ccccc5)ncnc4s3)cc2)CC1`, for which the IC50 in experiment [2] stood at 0.6 µM. In experiment [2], `O=C(c1ccc(-c2cc3c(N[C@H](CO)c4ccccc4)ncnc3s2)cc1)N1CCN(CCO)CC1` had a half-inhibitory concentration (IC50) greater than 5 µM. Turning to `Fc1cccc(COc2ccc(Nc3ncnc4sc(C#CC5CCCN5)cc34)cc2Cl)c1` (centres undefined), the IC50 in experiment [3] stood at 0.109 µM.

With `COc1ccccc1-c1cc2c(NC(C)c3ccccc3)ncnc2s1` (racemic), in experiment [1], the midpoint of inhibition, the IC50, lay at 0.019 µM.

`COc1ccccc1-c1cc2c(NC(CO)c3ccccc3)ncnc2s1` (racemic) returned a half-inhibitory concentration (IC50) in experiment [1] of 0.008 µM. Compound `CC(Nc1ncnc2sc(Br)cc12)c1ccccc1` (racemic) displayed a half-maximal inhibitory concentration (IC50) in experiment [1] of 0.156 µM. Same read-out and setting: under `OCC(Nc1ncnc2sc(Br)cc12)c1ccccc1` (racemic) stands 0.083 µM.
